From PubChem BioAssay AID1259407 (Chemical Carcinogenesis Research Information System (CCRIS), 2018)
Active and inactive are the calls of the source. How the calls were made is not given here.

Test system: CCRIS mutagenicity, Ames/micronucleus/aberration tests
Assay: CCRIS mutagenicity studies
[1] = Test System: AMES SALMONELLA TYPHIMURIUM, Strain/Indicator: TA98, Metabolic Activation: NONE, Method: STANDARD PLATE
[2] = Test System: AMES SALMONELLA TYPHIMURIUM, Strain/Indicator: TA100, Metabolic Activation: NONE, Method: STANDARD PLATE
[3] = Test System: AMES SALMONELLA TYPHIMURIUM, Strain/Indicator: TA98, Metabolic Activation: RAT, LIVER, S-9, AROCLOR 1254, Method: STANDARD PLATE
[4] = Test System: AMES SALMONELLA TYPHIMURIUM, Strain/Indicator: TA1535, Metabolic Activation: NONE, Method: STANDARD PLATE
[5] = Test System: AMES SALMONELLA TYPHIMURIUM, Strain/Indicator: TA1537, Metabolic Activation: NONE, Method: STANDARD PLATE
[6] = Test System: AMES SALMONELLA TYPHIMURIUM, Strain/Indicator: TA100, Metabolic Activation: RAT, LIVER, S-9, AROCLOR 1254, Method: STANDARD PLATE

Measured: mutagenic call

O=[N+]([O-])c1cccc2c1ccc1cccc([N+](=O)[O-])c12
active: Test System: AMES SALMONELLA TYPHIMURIUM, Strain/Indicator: TA98(1,8-DNP6), Metabolic Activation: NONE, Method: STANDARD PLATE active; positive | Test System: AMES SALMONELLA TYPHIMURIUM, Strain/Indicator: TA98(NR), Metabolic Activation: NONE, Method: STANDARD PLATE active; positive | [1] active; positive | [2] active; positive | Test System: AMES SALMONELLA TYPHIMURIUM, Strain/Indicator: YG1021, Metabolic Activation: NONE, Method: STANDARD PLATE active; positive | Test System: AMES SALMONELLA TYPHIMURIUM, Strain/Indicator: YG1024, Metabolic Activation: NONE, Method: STANDARD PLATE active; positive | Test System: AMES SALMONELLA TYPHIMURIUM, Strain/Indicator: YG1026, Metabolic Activation: NONE, Method: STANDARD PLATE active; positive | Test System: AMES SALMONELLA TYPHIMURIUM, Strain/Indicator: YG1029, Metabolic Activation: NONE, Method: STANDARD PLATE active; positive

O=[N+]([O-])c1ccc2cc3c(cc2c1)[C@H](O)[C@@H](O)C=C3
active: [1] active; positive | [3] active; positive

Cn1c(N)nc2c3ccncc3ccc21
active: [3] active; positive

Cc1cccc(O)c1N
inactive: Test System: AMES SALMONELLA TYPHIMURIUM, Strain/Indicator: TA98, Metabolic Activation: HAMSTER LIVER S-9, AROCLOR 1254, Method: STANDARD PLATE inactive; negative | [1] inactive; negative | Test System: AMES SALMONELLA TYPHIMURIUM, Strain/Indicator: TA98, Metabolic Activation: RAT LIVER S-9, AROCLOR 1254, Method: STANDARD PLATE inactive; negative | Test System: AMES SALMONELLA TYPHIMURIUM, Strain/Indicator: TA100, Metabolic Activation: HAMSTER LIVER S-9, AROCLOR 1254, Method: STANDARD PLATE inactive; negative | [2] inactive; negative | Test System: AMES SALMONELLA TYPHIMURIUM, Strain/Indicator: TA100, Metabolic Activation: RAT LIVER S-9, AROCLOR 1254, Method: STANDARD PLATE inactive; negative | Test System: AMES SALMONELLA TYPHIMURIUM, Strain/Indicator: TA102, Metabolic Activation: HAMSTER LIVER S-9, AROCLOR 1254, Method: STANDARD PLATE inactive; negative | Test System: AMES SALMONELLA TYPHIMURIUM, Strain/Indicator: TA102, Metabolic Activation: NONE, Method: STANDARD PLATE inactive; negative | Test System: AMES SALMONELLA TYPHIMURIUM, Strain/Indicator: TA102, Metabolic Activation: RAT LIVER S-9, AROCLOR 1254, Method: STANDARD PLATE inactive; negative | Test System: AMES SALMONELLA TYPHIMURIUM, Strain/Indicator: TA1535, Metabolic Activation: HAMSTER LIVER S-9, AROCLOR 1254, Method: STANDARD PLATE inactive; negative | [4] inactive; negative | Test System: AMES SALMONELLA TYPHIMURIUM, Strain/Indicator: TA1535, Metabolic Activation: RAT LIVER S-9, AROCLOR 1254, Method: STANDARD PLATE inactive; negative | Test System: AMES SALMONELLA TYPHIMURIUM, Strain/Indicator: TA1537, Metabolic Activation: HAMSTER LIVER S-9, AROCLOR 1254, Method: STANDARD PLATE inactive; negative | [5] inactive; negative | Test System: AMES SALMONELLA TYPHIMURIUM, Strain/Indicator: TA1537, Metabolic Activation: RAT LIVER S-9, AROCLOR 1254, Method: STANDARD PLATE inactive; negative
active: Test System: MOUSE LYMPHOMA, Strain/Indicator: L5178Y (TK+/TK-), Metabolic Activation: NONE, Method: SUSPENSION/PLATE active; positive. reevaluation of results: positive | Test System: MOUSE LYMPHOMA, Strain/Indicator: L5178Y (TK+/TK-), Metabolic Activation: RAT, LIVER, S-9, AROCLOR 1254, Method: SUSPENSION/PLATE active; positive. reevaluation of results: equivocal

CCN(CC)C(=S)S[C@@H]1O[C@H](CO)[C@@H](O)[C@H](O)[C@H]1O
inactive: [1] inactive; negative | [3] inactive; negative | [2] inactive; negative | [6] inactive; negative

COc1cc(O[C@@H]2O[C@H](CO)[C@@H](O)[C@H](O)[C@H]2O)c2c(=O)c3c(O)ccc(O)c3oc2c1
active: Test System: AMES SALMONELLA TYPHIMURIUM, Strain/Indicator: TA97, Metabolic Activation: RAT, LIVER, S-9, PHENOBARBITAL AND 5,6-BENZOFLAVONE, BETA-GLUCOSIDASE, Method: PREINCUBATION active; positive | Test System: AMES SALMONELLA TYPHIMURIUM, Strain/Indicator: TA100, Metabolic Activation: RAT, LIVER, S-9, PHENOBARBITAL AND 5,6-BENZOFLAVONE, BETA-GLUCOSIDASE, Method: PREINCUBATION active; positive | Test System: AMES SALMONELLA TYPHIMURIUM, Strain/Indicator: TA2637, Metabolic Activation: RAT, LIVER, S-9, PHENOBARBITAL AND 5,6-BENZOFLAVONE, BETA-GLUCOSIDASE, Method: PREINCUBATION active; positive
inactive: Test System: AMES SALMONELLA TYPHIMURIUM, Strain/Indicator: TA98, Metabolic Activation: RAT, LIVER, S-9, PHENOBARBITAL AND 5,6-BENZOFLAVONE, BETA-GLUCOSIDASE, Method: PREINCUBATION inactive; negative

COc1cc(O)c2c(c1)Cc1cc(C)cc(O)c1C2=O
inactive: [5] inactive; negative
active: Test System: AMES SALMONELLA TYPHIMURIUM, Strain/Indicator: TA1537, Metabolic Activation: S-9, Method: STANDARD PLATE active; positive

CC(=O)OCC1=CO[C@@H](OC(=O)CC(C)C)[C@H]2C1=C[C@H](OC(=O)CC(C)C)[C@]21CO1
active: [6] active; positive | Test System: E. COLI, Strain/Indicator: WP2 UVRA, Metabolic Activation: NONE, Method: STANDARD PLATE active; positive
inactive: [1] inactive; negative | [3] inactive; negative | [2] inactive; negative | [4] inactive; negative | Test System: AMES SALMONELLA TYPHIMURIUM, Strain/Indicator: TA1535, Metabolic Activation: RAT, LIVER, S-9, AROCLOR 1254, Method: STANDARD PLATE inactive; negative | [5] inactive; negative | Test System: AMES SALMONELLA TYPHIMURIUM, Strain/Indicator: TA1537, Metabolic Activation: RAT, LIVER, S-9, AROCLOR 1254, Method: STANDARD PLATE inactive; negative | Test System: E. COLI, Strain/Indicator: WP2, Metabolic Activation: NONE, Method: STANDARD PLATE inactive; negative | Test System: E. COLI, Strain/Indicator: WP2, Metabolic Activation: RAT, LIVER, S-9, AROCLOR 1254, Method: STANDARD PLATE inactive; negative | Test System: E. COLI, Strain/Indicator: WP2 UVRA, Metabolic Activation: RAT, LIVER, S-9, AROCLOR 1254, Method: STANDARD PLATE inactive; negative

Cc1cc2c(cc1C)-c1ccccc1C2
inactive: [3] inactive; negative | [6] inactive; negative

c1scc2c1-c1cscc1C1OC21 (centres undefined)
active: [1] active; positive | [2] active; positive
